This assay has as its target T1, Substance-K receptor (Homo sapiens, UniProt P21452).
T1 sequence (P21452 whole entry): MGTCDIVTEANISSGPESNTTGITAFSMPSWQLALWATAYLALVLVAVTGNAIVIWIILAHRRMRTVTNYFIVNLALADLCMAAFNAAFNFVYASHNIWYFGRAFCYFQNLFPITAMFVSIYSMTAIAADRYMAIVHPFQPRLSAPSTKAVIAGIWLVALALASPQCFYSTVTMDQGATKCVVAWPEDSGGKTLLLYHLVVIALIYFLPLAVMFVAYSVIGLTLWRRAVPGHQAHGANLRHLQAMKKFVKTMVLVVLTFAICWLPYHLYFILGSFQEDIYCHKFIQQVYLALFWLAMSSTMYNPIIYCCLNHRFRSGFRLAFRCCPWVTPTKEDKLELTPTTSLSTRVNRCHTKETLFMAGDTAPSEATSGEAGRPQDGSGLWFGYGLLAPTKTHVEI
The assay is described as follows: Tested for the binding affinity to human NK2 receptor expressed in Sf-9 insect larval cells using 0.1 nM 2-[125 I] iodohistidyl neurokinin A. The class given is functional.

pIC50: −log10 of the molar value. Numbered stars: 1 amine (or outer) side, 2 acyl side, 3 side chain; on linkers, the order of the positions; unused ones are H or OH. Square brackets hold non-standard residues; d marks the D form. Peptide text beside a SMILES is read from it. X2 = O=C([C@@H](Cc1ccc(NC(=S)Cc2ccccc2)cc1)N[*:1])[*:2]; X1 = O=C([C@@H](Cc1ccc(NC(=S)c2ccccc2)cc1)N[*:1])[*:2]; hCys = N[C@@H](CCS)C(=O)O

As usually defined, the pIC50 is the IC50 on a negative log10 scale, so that one unit is a factor of ten. High values mean a low IC50, low ones a high IC50. In the case of `CC(C)C[C@H](NC(=O)CNC(=O)[C@@H](NC(=O)[C@H](Cc1ccccc1)NC(=O)[C@H](CO)NC(=O)[C@H](CC(=O)O)NC(=O)[C@@H](NC(=O)[C@H](CCCCN)NC(=O)[C@@H](Cc1ccc(NC(=S)c2ccccc2)cc1)NC(=O)[C@@H](N)Cc1c[nH]cn1)[C@@H](C)O)C(C)C)C(=O)N[C@@H](CCS)C(N)=O` (H-H[X1]KTDSFVGL[hCys]-NH2), the pIC50 is 8.11.
`CC(C)C[C@H](NC(=O)CNC(=O)[C@@H](NC(=O)[C@H](Cc1ccccc1)NC(=O)[C@H](CO)NC(=O)[C@H](CC(=O)O)NC(=O)[C@@H](NC(=O)[C@H](CCCCN)NC(=O)[C@@H](Cc1ccc(NC(=S)Cc2ccccc2)cc1)NC(=O)[C@@H](N)Cc1ccc(O)cc1)[C@@H](C)O)C(C)C)C(=O)N[C@@H](CCS)C(N)=O` (H-Y[X2]KTDSFVGL[hCys]-NH2) had a pIC50 of 7.27.

These data come from ChEMBL document CHEMBL1151553, “Two novel amino acid derivatives containing side-chain thioamides for the synthesis of photoactivatable peptides” (Bioorg Med Chem Lett, 1997).
